# Reference: patent US5945509A, “Glutamate receptor compositions and method” (The Salk Institute for Biological Studies, priority 1995, dated 1999)
# Where two headings read alike, the source gives them in different places.
# Assays:
# GluR1 = biological target: T1, GluR1 (Rattus norvegicus, UniProt P19490); test: Electrophysiological recording in Xenopus oocytes injected with GluR1 in vitro RNA; assay type: cell-based
# T1 construct: expressed in transfected cells; host or cells: Xenopus oocytes injected with in vitro transcribed pGluR1 sense RNA
# T1 sequence (P19490 19-907): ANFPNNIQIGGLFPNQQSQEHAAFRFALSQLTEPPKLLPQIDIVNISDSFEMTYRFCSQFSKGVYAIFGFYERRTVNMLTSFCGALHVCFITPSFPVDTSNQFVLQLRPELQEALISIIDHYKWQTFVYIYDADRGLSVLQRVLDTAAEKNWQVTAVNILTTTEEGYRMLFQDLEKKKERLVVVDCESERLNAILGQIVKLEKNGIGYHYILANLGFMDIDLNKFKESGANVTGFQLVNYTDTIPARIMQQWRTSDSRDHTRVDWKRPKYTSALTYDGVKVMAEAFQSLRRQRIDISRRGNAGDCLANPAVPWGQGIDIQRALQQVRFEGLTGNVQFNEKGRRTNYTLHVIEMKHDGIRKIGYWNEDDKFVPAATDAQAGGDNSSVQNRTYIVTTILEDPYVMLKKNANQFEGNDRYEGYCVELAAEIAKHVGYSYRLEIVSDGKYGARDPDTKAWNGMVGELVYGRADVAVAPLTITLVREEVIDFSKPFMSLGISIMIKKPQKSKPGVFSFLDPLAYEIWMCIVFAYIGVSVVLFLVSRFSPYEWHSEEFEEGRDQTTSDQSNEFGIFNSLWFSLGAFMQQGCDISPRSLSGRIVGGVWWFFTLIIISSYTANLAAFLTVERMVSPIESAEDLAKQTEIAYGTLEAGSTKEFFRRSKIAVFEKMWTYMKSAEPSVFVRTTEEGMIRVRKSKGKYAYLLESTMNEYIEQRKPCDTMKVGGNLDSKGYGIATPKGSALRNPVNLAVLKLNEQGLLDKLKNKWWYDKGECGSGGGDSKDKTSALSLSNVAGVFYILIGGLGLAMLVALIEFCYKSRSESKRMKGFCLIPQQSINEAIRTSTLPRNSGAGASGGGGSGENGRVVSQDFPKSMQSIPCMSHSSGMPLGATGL
# Description: It depends upon the fact that when foreign mRNA is injected into Xenopus oocytes, the mRNA is translated into functional protein.
# Either a λZAP cDNA preparation, or a plasmid containing the cDNA to be tested, are cut downstream from the cDNA insert with a restriction enzyme. The post-restriction digest is digested with Proteinase K and then extracted with two phenol: chloroform (1:1) extractions. The resulting DNA fragments are then ethanol precipitated. The precipitated fragments are mixed with either T3 RNA polymerase (to make sense strand), or T7 RNA polymerase (to make anti-sense strand), plus rATP, rCTP, rGTP, rUTP, and RNase inhibitor. Simultaneously, the RNA transcripts are capped with a sodium diguanosine triphosphate [G(5')ppp(5')G] cap. The water used for the above procedures is treated with diethylpyrocarbonate to inactivate RNases.
# The in vitro synthesized mRNA transcripts are injected into Xenopus oocytes. 50 nl of an RNA solution, 0.2-0.6 mg/ml, is injected into the stage V oocytes. The injected oocytes are incubated at 16° C. in Barth's medium for 2-7 days before they are analyzed for the presence of functional receptors.
# Voltage recordings are made by penetrating the oocyte with a micro-electrode filled with 3M KCl and connected to the bridge circuit of an appropriate voltage clamp unit, e.g., the Dagan 8500 voltage clamp unit. Voltage recordings are preferably obtained with two electrodes, a voltage electrode filled with 3M KCl and a current electrode filled with 0.25 M CsCl, 0.25 M CsF and 50 mM EGTA (ethylene glycol tetraacetic acid).
# Oocytes employed herein are obtained from ovarian tissue from anesthetized adult female Xenopus. The ovarian tissue is treated with collagenase, 2 mg/ml, for two hours and then the ovarian epithelium and follicular cells are dissected away.
# The plasmid pGluR1 was subsequently rescued from bacteriophage λZAPII-GluR1.
# 3 days prior to the recording. The oocytes were voltageclamped at -70 mV,
# applied by rapid superfusion, with 5 minute intervals between drugs. Peak
# currents were recorded; each number represents the average of 3 recording
# from 3 different oocytes, ± SEM.
# (§1) The data in FIG. 3B represent the responses of oocytes to the indicated agonists measured 3 days after injection with GluR1 (2 ng) or GluR3 (2 ng) RNA or adult rat brain hippocampus poly(A)^+ RNA (~50 ng). All values are normalized to the response obtained with […] and are presented as the mean±S.E.M. with n≥3 for all measurements.
# homomeric GluR6 receptor = biological target: T2, homomeric GluR6 receptor (Rattus norvegicus, UniProt P42260, I567V/Q621R/Y571C); test: Current recording in Xenopus oocytes injected with GluR6 RNA (homomeric GluR6 receptor); assay type: cell-based; settings: for current measured at -70 mV: 10 μM kainate
# T2 construct: engineer a cDNA clone encoding the entire open reading frame of the GluR6 protein; expressed in transfected cells; host or cells: Xenopus oocytes injected with in vitro transcribed GluR6 RNA
# T2 sequence (P42260 with tags, fused parts or gaps I567V/Y571C/Q621R): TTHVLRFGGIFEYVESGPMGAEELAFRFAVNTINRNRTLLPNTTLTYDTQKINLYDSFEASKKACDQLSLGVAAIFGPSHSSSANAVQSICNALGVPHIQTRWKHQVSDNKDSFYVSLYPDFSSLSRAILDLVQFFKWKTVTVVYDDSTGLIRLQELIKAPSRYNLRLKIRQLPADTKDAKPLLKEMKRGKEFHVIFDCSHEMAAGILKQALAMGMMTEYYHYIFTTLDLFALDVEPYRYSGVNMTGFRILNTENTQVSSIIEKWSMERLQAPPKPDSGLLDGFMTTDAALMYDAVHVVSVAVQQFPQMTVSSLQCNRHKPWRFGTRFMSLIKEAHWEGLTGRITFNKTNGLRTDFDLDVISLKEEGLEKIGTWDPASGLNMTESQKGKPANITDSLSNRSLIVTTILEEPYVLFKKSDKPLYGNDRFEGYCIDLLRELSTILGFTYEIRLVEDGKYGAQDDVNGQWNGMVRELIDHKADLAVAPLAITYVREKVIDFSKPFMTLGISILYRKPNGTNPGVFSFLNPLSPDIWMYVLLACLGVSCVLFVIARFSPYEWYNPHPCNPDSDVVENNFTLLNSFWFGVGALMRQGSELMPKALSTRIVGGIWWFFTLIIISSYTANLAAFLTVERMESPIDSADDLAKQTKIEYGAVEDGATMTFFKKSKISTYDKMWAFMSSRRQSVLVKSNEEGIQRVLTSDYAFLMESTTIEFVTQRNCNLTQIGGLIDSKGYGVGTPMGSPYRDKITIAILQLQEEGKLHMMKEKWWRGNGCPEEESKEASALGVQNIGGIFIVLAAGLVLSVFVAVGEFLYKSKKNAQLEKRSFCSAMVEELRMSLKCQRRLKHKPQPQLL
# GluR3 = assay type: cell-based, rat
# Description: Thus, oocytes were injected with in vitro synthesized RNA transcripts derived from individual cDNA clones.
# as §1
# GluR5-1 = assay type: cell-based, rat
# Excerpt: (§2) In vitro synthesized GluR5-1 and GluR5-2 cRNAs were individually expressed in Xenopus oocytes.
# GluR5-2 = GluR5-2 (Rattus norvegicus, UniProt P22756); assay type: cell-based
# GluR5-2, sequence (P22756 31-949): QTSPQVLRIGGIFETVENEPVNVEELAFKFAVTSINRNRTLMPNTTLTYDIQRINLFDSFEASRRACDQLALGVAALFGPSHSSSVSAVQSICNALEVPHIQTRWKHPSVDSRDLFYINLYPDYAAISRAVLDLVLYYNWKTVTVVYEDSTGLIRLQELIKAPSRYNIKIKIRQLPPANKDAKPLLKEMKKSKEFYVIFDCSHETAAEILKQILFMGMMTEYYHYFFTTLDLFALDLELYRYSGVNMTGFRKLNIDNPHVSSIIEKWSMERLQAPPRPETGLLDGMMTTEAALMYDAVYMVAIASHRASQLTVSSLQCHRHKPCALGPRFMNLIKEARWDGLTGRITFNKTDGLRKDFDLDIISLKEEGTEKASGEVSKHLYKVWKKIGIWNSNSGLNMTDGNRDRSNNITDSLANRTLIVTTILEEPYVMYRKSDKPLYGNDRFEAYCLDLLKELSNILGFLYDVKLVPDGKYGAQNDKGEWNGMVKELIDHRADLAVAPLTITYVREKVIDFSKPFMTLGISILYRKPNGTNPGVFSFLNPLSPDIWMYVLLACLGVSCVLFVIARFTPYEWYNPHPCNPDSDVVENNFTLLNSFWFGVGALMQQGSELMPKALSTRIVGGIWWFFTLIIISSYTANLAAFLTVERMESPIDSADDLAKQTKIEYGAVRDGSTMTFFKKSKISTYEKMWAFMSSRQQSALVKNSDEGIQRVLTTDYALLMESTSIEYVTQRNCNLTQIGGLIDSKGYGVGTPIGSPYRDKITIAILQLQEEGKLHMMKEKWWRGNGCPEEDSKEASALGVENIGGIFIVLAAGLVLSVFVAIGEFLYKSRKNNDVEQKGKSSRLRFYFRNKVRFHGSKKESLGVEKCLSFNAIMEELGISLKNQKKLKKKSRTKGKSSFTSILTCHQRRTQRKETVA
# Excerpt: as §2
# [1] = test system: oocytes injected with poly(A)+ RNA isolated from rat forebrain; assay type: cell-based; settings: 2-10 days after injection
# [2] = test system: oocytes injected with pool of in vitro transcripts from rat forebrain cDNA library; test: Voltage recordings from oocytes injected with pooled in vitro transcripts of the λZAPII RTB1 cDNA library; assay type: cell-based; settings: 10 days after injection
# Description: A directional cDNA library (λZAPII RTB1; complexity: 8×10^5 elements), consisting of 18 independent sublibraries of 44,000 clones each, was constructed from this poly(A)^+ RNA using the bacteriophage expression vector λZAPII. A pool of in vitro transcripts, comprised of transcripts made separately from all 18 amplified sublibraries, was injected into oocytes. […] Subsequently, pools of 44,000 clones (=the single sublibraries), 4,000, 400 and 40 clones were tested.
# [3] = oocytes held at -100 mV, without Con A, AMPA 100 μM
# [4] = QUIS 10 μM, AMPA 50 μM, GLU 100 μM, NMDA 30 μM plus 10 μM glycine, APB 50 μM, -70 mV, 3 days after 2 ng RNA
molecule,measurement,setting,value
"O=C(O)[C@H]1CCCN[C@H]1C(=O)O (relative stereo) [PDA, 2,3cis-piperidine dicarboxylic acid]",Compound Alone (%),GluR1,2.5 ± 0.7%
"Cc1onc(O)c1CC(N)C(=O)O (stereo not drawn) [AMPA, α-amino-3-hydroxy-5-methyl-isoxazole-4-propionic acid]",response of Con A treated oocytes (in words),homomeric GluR6 receptor,did not respond
same,effect of coapplication on kainate-evoked (1 μM) responses,"homomeric GluR6 receptor; AMPA 100 μM, Con A treated oocytes",no effect
same,current evoked by agonist (in words),homomeric GluR6 receptor; [3],did not evoke any detectable current
"NC(CCP(=O)(O)O)C(=O)O (stereo not shown) [APB, 2-amino-4-phosphonobutyric acid]",response of oocytes to agonist (in words),GluR1; [4],No detectable responses
same,response of oocytes to agonist (in words),GluR3; [4],No detectable responses
same,membrane depolarization elicited by agonist (in words),"GluR5-1; KA, AMPA 50 μM, quisqualate 10 μM, APB 100 μM, NMDA 100 μM with 10 μM glycine",did not elicit membrane depolarizations
same,membrane depolarization elicited by agonist (in words),"GluR5-2; KA 100 MM, AMPA 50 μM, quisqualate 10 μM, APB 100 μM, NMDA 100 μM with 10 μM glycine",did not elicit membrane depolarizations
same,response to selective agonists (in words),[1],gave no response
"NC(CCCP(=O)(O)O)C(=O)O (stereo not shown) [APV, 2amino-5-phospho-novaleric acid]",Compound Alone (%),"GluR1; % of the response evoked by 30 μM kainate immediately before drug application, compounds at 1 mM (kainate 30 μM), -70 mV, peak currents, 3 oocytes, ± SEM",3.1 ± 1.4%
"N#Cc1cc2[nH]c(=O)c(=O)[nH]c2cc1[N+](=O)[O-] [CNQX, 6-nitro-7-cyano-quinoxaline-2,3-dione]",block of agonist-evoked responses (in words),homomeric GluR6 receptor,blocked both quisqualate and kainate-evoked responses
"O=C(O)C1CN(CCCP(=O)(O)O)CCN1 (stereo not shown) [CPP, 3 (2carboxypiperazin-4-yl)propyl-1-phosphate]",Compound Alone (%),GluR1,9.1 ± 0.7%
"CCOC(=O)CC[C@H](N)C(=O)OCC [GDEE, glutamate diethylester]",Compound Alone (%),GluR1,24.8 ± 5.7%
same,agonist properties (in words),GluR1; each at 1 mM,weak agonist properties
O=C(O)c1cc(=O)c2ccccc2[nH]1 [Kynurenic acid],Compound Alone (%),GluR1,3.4 ± 0.2%
"CN[C@H](CC(=O)O)C(=O)O [NMDA, N-methyl-D-aspartic acid]",response evoked by glutamate receptor agonists,GluR1,no responses
same,response of oocytes to agonist (in words),GluR1,No detectable responses
same,response of oocytes to agonist (in words),GluR3,No detectable responses
same,membrane depolarization elicited by agonist (in words),GluR5-1,did not elicit membrane depolarizations
same,membrane depolarization elicited by agonist (in words),GluR5-2,did not elicit membrane depolarizations
same,response of Con A treated oocytes (in words),homomeric GluR6 receptor,did not respond
same,response to selective agonists (in words),[1],elicited smooth responses with fast onsets
same,response to agonist (in words),[2],No responses
NCC(=O)O [glycine],potentiation of the KA response,GluR1,did not potentiate
same,response evoked by unrelated neurotransmitter receptor agonists,GluR1,failed to evoke responses
"C=C(C)[C@H]1CN[C@H](C(=O)O)[C@H]1CC(=O)O [kainate, kainic acid]",100% current response,"GluR1; 30 μM kainate, -70 mV, depending on the oocyte",40-200 nA
same,current measured at -70 mV,"homomeric GluR6 receptor; Con A treated, modified Ringer solution (NaCl substituted by sodium methanesulfonate)",330 nA
same,current measured at -70 mV,"homomeric GluR6 receptor; Ringer solution, after Con A treatment",2.3 μa
same,current measured at -70 mV,"homomeric GluR6 receptor; Ringer solution, before Con A treatment",30 nA
same,time for full recovery from desensitization,homomeric GluR6 receptor; after 100 μM kainate for 30 seconds,approximately 15 minutes
same,response of Con A treated oocytes (in words),"homomeric GluR6 receptor; aspartate 100 μM, NMDA 100 μM with 3 μM glycine, AMPA 10-1000 μM",responded
same,current evoked by agonist (in words),homomeric GluR6 receptor; [3],evoked inward currents that desensitized
CN1CCCC1c1cccnc1 (stereo not shown) [nicotine],response evoked by unrelated neurotransmitter receptor agonists,GluR1,failed to evoke responses
"N[C@@H](Cn1oc(=O)[nH]c1=O)C(=O)O [quisqualate, quisqualic acid]",membrane depolarization elicited by agonist (in words),GluR5-2,did not elicit membrane depolarizations
same,current evoked by agonist (in words),homomeric GluR6 receptor,activated only small inward currents
same,effect on kainate-evoked current (in words),homomeric GluR6 receptor; without Con A,attenuated a subsequent kainate evoked current
NCCc1c[nH]c2ccc(O)cc12 [serotonin],response evoked by unrelated neurotransmitter receptor agonists,GluR1; concentrations as high as 1 mM,failed to evoke responses
"N[C@H](CCC(=O)NCC(=O)O)C(=O)O [γ-DGG, D-glutamylglycine]",Compound Alone (%),GluR1,-0.1 ± 0.5%
NCCCC(=O)O [γ-aminobutyric acid],response evoked by unrelated neurotransmitter receptor agonists,GluR1; concentrations as high as 1 mM,failed to evoke responses
concanavalin A [Con A],effect on desensitization,homomeric GluR6 receptor; 10 μM Con A for 5 minutes,efficiently decreases desensitization
